Patent EP1311531B1, “STEROID DERIVED ANTIBIOTICS” (Brigham Young University, priority 2000, dated 2002)
Converted amounts (≈) assume the structure as drawn. Read-outs that look alike come from different tables or passages of the source.

Experiments:
[1] = system: E. coli (ATCC 10798); assay: MIC and MBC measurement; assay type: cell-based, Escherichia coli; conditions: ATCC10798; for MBC: read-out: MBC; for MIC: read-out: MIC
Outline: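 Strains on Mueller-Hinton agar. Cholic acid derivative HCl salts in sterile water, filtered. TSB tube dilutions ± erythromycin/novobiocin; MIC by turbidity; MBC via TSA subculture CFU counts vs inoculum.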

[2] = system: E. coli (ATCC 10798); assay: Sensitization to erythromycin or novobiocin (outer membrane permeabilization, FIC); assay type: cell-based, Escherichia coli; conditions: for MBC: Escherichia coli; for MBC / concentration required to lower the MIC of erythromycin from 70 µg/mL to 1 µg/mL: E. coli (ATCC 10798); for concentration required to lower the MIC of erythromycin from 70 µg/mL to 1 µg/mL: Table 2
Outline: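 E. coli in TSB received cholic acid derivatives, then erythromycin or novobiocin 15 minutes later, in checkerboard titration, stationary at 37°C for 24 hours. Turbidity was read at 760 nm; clear samples were subcultured on TSA for CFU/mL versus inoculum. FIC = sum of MIC-in-combination/MIC-alone ratios for compound and antibiotic.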

[3] = system: Escherichia coli ATCC 25922; assay: MIC and MBC measurement; assay type: cell-based; conditions: Escherichia coli; for MIC: read-out: MIC
Outline: (§1)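 Tube dilution in tryptic soy broth with compounds dissolved in water as HCl salts; stationary incubation 37°C for 24 hours, MIC from turbidity at 760 nm. MBC from subculture of non-turbid samples on TSA plates, CFU/mL compared with the original inoculum.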

[4] = system: Staphylococcus aureus ATCC 25923; assay: MIC and MBC measurement; assay type: cell-based; conditions: ATCC25923, Table 10, Staphylococcus aureus ATCC 25923; for MIC: read-out: MIC
Outline: as §1

[5] = system: Pseudomonas aeruginosa ATCC 27853; assay: Sensitization to erythromycin, novobiocin or rifampicin (permeabilization, FIC); assay type: cell-based; conditions: for MBC: Pseudomonas aeruginosa; for MBC / concentration required to lower the MIC of erythromycin from 240 µg/mL to 5 µg/mL: Table 7, with erythromycin; for MBC / concentration required to lower the MIC of erythromycin from 240 µg/mL to 5 µg/mL / concentration required to lower the MIC of novobiocin from >500 µg/mL to 1 µg/mL: P. aureginosa (ATCC 27853); for concentration required to lower the MIC of novobiocin from >500 µg/mL to 1 µg/mL: Table 8, with novobiocin
[6] = system: Salmonella typhimurium ATCC 14028; assay: as above; assay type: cell-based
[7] = system: Klebsiella pneumonia ATCC 13883; assay: as above; assay type: cell-based, Klebsiella pneumoniae
[8] = system: Enterococcus faeculis ATCC 29212; assay: MIC and MBC measurement; assay type: cell-based, Enterococcus faecalis; conditions: ATCC29212
Procedure: General: Microorganisms. Reference strains were purchased from the American Type Culture Collection (Rockville, MD) or Bactrol disks from Difeo Laboratories (Detroit, MI). […] Bacterial strains were maintained on Mueller-Hinton agar plates, and Candida albicans was maintained on Sabouraud Dextrose agar plates.
Aliquots (20 mL) of the homogeneous solution were then poured in sterile plastic petri dishes (100 x 15 mm, Fisher Scientific). Solutions of compounds were made by dissolving the HCl salt of the respective compound into an appropriate amount of deionized and sterilized water followed by microfiltration.
Aliquots of 1 mL of the suspension were added to test tubes containing 1 mL TSB and incrementally varied concentrations of cholic acid derivatives and/or erythromycin or novobiocin. […] Additionally, an alliquot from each of the samples showing no measurable turbidity was subcultured on TSA plates (alliquots were diluted to provide fewer than 300 CFU). Colonies that grew on the subculture after overnight incubation were counted and the number of CFU/mL in the samples were calculated. The calculated values were compared to the number of CFU/mL in the original inoculum.

[9] = system: Escherichia coli ATCC 25922; conditions: ATCC25922
[10] = Escherichia coli, Table 1, E. coli (ATCC 10798)
[11] = ATCC10798, Table 2, with erythromycin
[12] = ATCC10798, Table 3, with novobiocin
[13] = ATCC25922, Table 4, E. coli (ATCC 25922)
[14] = ATCC25922, Table 10, Escherichia coli ATCC 25922
[15] = Table 12, with novobiocin (order of b151), Pseudomonas aeruginosa ATCC 27853
[16] = Table 13, with rifampicin (order of b151), Pseudomonas aeruginosa ATCC 27853^b (footnote b not given)
[17] = Table 11, with erythromycin (order of b151)
[18] = Table 12, with novobiocin (order of b151)
[19] = Table 12, with novobiocin (order of b151), Klebsiella pneumonia ATCC 13883
[20] = Table 13, with rifampicin (order of b151), Klebsiella pneumonia ATCC 13883
[21] = Table 9, Escherichia coli (ATCC 10798)

| MIC [3, 14] [µg/mL] | MIC [4] [µg/mL] | MIC [8] [µg/mL] | SMILES | MBC [1, 10] [µg/mL] | MIC [1, 10] [µg/mL] | MBC [2, 11] [µg/mL] | MBC [2, 12] [µg/mL] | concentration required to lower the MIC of erythromycin from 70 µg/mL to 1 µg/mL ([2]; with erythromycin) [µg/mL] | MBC [3, 13] [µg/mL] | MIC [3, 13] [µg/mL] | MBC [3, 14] [µg/mL] | MBC [4] [µg/mL] | FIC ([5]; ATCC27853) | concentration required for bacterial growth inhibition ([5]; ATCC27853) [µg/mL] | MBC ([5]; ATCC27853) [µg/mL] | FIC [6, 17] | concentration required for bacterial growth inhibition [6, 17] [µg/mL] | FIC ([7]; ATCC13883) | concentration required for bacterial growth inhibition ([7]; ATCC13883) [µg/mL] | MBC [8] [µg/mL] | further results |
| --- | --- | --- | --- | --- | --- | --- | --- | --- | --- | --- | --- | --- | --- | --- | --- | --- | --- | --- | --- | --- | --- |
| 1.4 (≈ 1.76 µM) | 0.6 (≈ 0.755 µM) | 2.2 (≈ 2.77 µM) | C[C@H](CCCN(C)Cc1ccccc1)[C@H]1CC[C@H]2[C@@H]3[C@H](OCCCNC(=N)N)C[C@@H]4C[C@H](OCCCNC(=N)N)CC[C@]4(C)[C@H]3C[C@H](OCCCNC(=N)N)[C@]12C [Compound 5] | 4 (≈ 5.03 µM) | 2 (≈ 2.52 µM) | 3 | 4 | 1 | 4 (≈ 5.03 µM) | 2 (≈ 2.52 µM) | 3.8 (≈ 4.78 µM) | 3.2 (≈ 4.02 µM) | 0.42 | 2.3 | 10 | 0.23 | 0.46 | 0.080 | 0.15 | 16 (≈ 20.1 µM) | concentration required to lower the MIC of erythromycin from 240 µg/mL to 5 µg/mL [5]: 3 µg/mL; concentration required to lower the MIC of novobiocin from >500 µg/mL to 1 µg/mL [5]: 6 µg/mL; FIC [9]: 0.31 |
| 6.6 (≈ 10.9 µM) | 0.55 (≈ 0.905 µM) | 3.1 (≈ 5.1 µM) | CCCOCCC[C@@H](C)[C@H]1CC[C@H]2[C@@H]3[C@H](OCCCN)C[C@@H]4C[C@H](OCCCN)CC[C@]4(C)[C@H]3C[C@H](OCCCN)[C@]12C [Compound 112] |  |  |  |  |  |  |  | 7.4 (≈ 12.2 µM) | 4.2 (≈ 6.91 µM) | 0.59 | 1.0 |  | 0.019 | 0.20 | 0.035 | 0.1 | 4.7 (≈ 7.73 µM) | MBC [1, 21]: 17 µg/mL (≈ 28 µM); MIC [1, 21]: 12 µg/mL (≈ 19.7 µM); (a) Concentration required to lower the MIC of erythromycin from 70 to 1 µg/mL [2, 21]: 0.4 µg/mL; (b) MBC with 1 µg/mL erythromycin [2, 21]: 4.0 µg/mL; (d) Concentration required to lower the MIC of novobiocin from >500 to 1 µg/mL [2, 21]: 0.8 µg/mL; FIC^c (FIC values with erythromycin) [2, 21]: 0.048; FIC^c (FIC values with novobiocin) [2, 21]: 0.085; concentration required for bacterial growth inhibition [5, 15]: 0.72 µg/mL; FIC [5, 16]: 0.15; FIC [6, 18]: 0.015; concentration required for bacterial growth inhibition [6, 18]: 0.39 µg/mL; concentration required for bacterial growth inhibition [7, 19]: 0.19 µg/mL; FIC [7, 20]: 0.031; concentration required for bacterial growth inhibition [7, 20]: 0.11 µg/mL; concentration required for bacterial growth inhibition [9]: 0.40 µg/mL |

| SMILES | MIC [3, 14] [µg/mL] | MIC [4] [µg/mL] | MIC [8] [µg/mL] | MBC [1, 10] [µg/mL] | MIC [1, 10] [µg/mL] | MBC [2, 11] [µg/mL] | MBC [2, 12] [µg/mL] | concentration required to lower the MIC of erythromycin from 70 µg/mL to 1 µg/mL ([2]; with erythromycin) [µg/mL] | MBC [3, 13] [µg/mL] | MIC [3, 13] [µg/mL] | MBC [3, 14] [µg/mL] | MBC [4] [µg/mL] | FIC ([5]; ATCC27853) | concentration required for bacterial growth inhibition ([5]; ATCC27853) [µg/mL] | MBC ([5]; ATCC27853) [µg/mL] | FIC [6, 17] | concentration required for bacterial growth inhibition [6, 17] [µg/mL] | FIC ([7]; ATCC13883) | concentration required for bacterial growth inhibition ([7]; ATCC13883) [µg/mL] | MBC [8] [µg/mL] | further results |
| --- | --- | --- | --- | --- | --- | --- | --- | --- | --- | --- | --- | --- | --- | --- | --- | --- | --- | --- | --- | --- | --- |
| C[C@H](CCCN(C)Cc1ccccc1)[C@H]1CC[C@H]2[C@@H]3[C@H](OCCCN)C[C@@H]4C[C@H](OCCCN)CC[C@]4(C)[C@H]3C[C@H](OCCCN)[C@]12C [Compound 2] | 5.1 (≈ 7.62 µM) | 1 (≈ 1.49 µM) | 3.4 (≈ 5.08 µM) | 16 (≈ 23.9 µM) | 7 (≈ 10.5 µM) | 10 | 16 | 1 | 20 (≈ 29.9 µM) | 10 (≈ 14.9 µM) | 6.8 (≈ 10.2 µM) | 4.7 (≈ 7.02 µM) | 0.25 | 2.4 | 25 | 0.17 | 2.0 | 0.048 | 0.25 | 19 (≈ 28.4 µM) | concentration required to lower the MIC of erythromycin from 240 µg/mL to 5 µg/mL [5]: 4 µg/mL; concentration required to lower the MIC of novobiocin from >500 µg/mL to 1 µg/mL [5]: 4 µg/mL; concentration required for bacterial growth inhibition [5, 15]: 2.9 µg/mL; FIC [5, 16]: 0.086; FIC [6, 18]: 0.36; concentration required for bacterial growth inhibition [6, 18]: 4.5 µg/mL; concentration required for bacterial growth inhibition [7, 19]: 0.49 µg/mL; FIC [7, 20]: 0.035; concentration required for bacterial growth inhibition [7, 20]: 0.12 µg/mL; concentration required for bacterial growth inhibition [9]: 0.33 µg/mL |
